Data reported in patent publication US12310971B2, “Coffee bean compositions comprising paraxanthine and methods for their production” (RAREBIRD, INC., priority 2021, dated 2025).

Legend:
[1] = in humans; cited from earlier work
[2] = Paraxanthine concentration in filtered aqueous stock infusion solution; format: physicochemical; settings: 18 grams of paraxanthine mixed in 1 liter of water at 85° C., filtered to remove undissolved paraxanthine
Protocol: In the first, infusing, step, the three batches of green coffee beans were individually infused with paraxanthine dissolved in water, the infusion solvent, to produce green solvated paraxanthine coffee beans. A stock solution of infusion solvent comprising paraxanthine was generated by mixing 18 grams of paraxanthine in 1 liter of water at 85° C.; the solution was then filtered to remove any residual, undissolved paraxanthine. The paraxanthine concentration in the stock solution was approximately 74 mM. Infusions were performed in 250-mL glass jars using 60 grams of green coffee beans and 120 grams of the stock infusion solution. The mixtures were incubated at 85° C. for 1 hour with periodic mixing. Subsequently, the green solvated paraxanthine coffee beans were separated using a colander, rinsed, and residual solvent removed from the surface of the beans. The mass of the infused beans was measured and compared to the mass of the original green coffee beans to determine the infusion solvent content. The moisture contents for batches 1, 2, and 3 were 45.1%, 46.9%, and 44.8%, respectively.

[3] = Solubility of paraxanthine in infusion solvents as a function of pH; format: physicochemical; settings: dependence on pH
Description: Thus, performing the infusing step at a pH of 7 or higher can be useful to increase the paraxanthine content of the finished paraxanthine coffee. In various embodiments, the pH of the infusion mixture is greater than pH 7. In some embodiments, the pH of the infusion mixture is greater than pH 8. In some embodiments, the pH of the infusion mixture is greater than 8.5. In some embodiments, the pH of the infusion mixture is greater than 9.0. In some embodiments, the pH of the infusion mixture is greater than 9.5.

SMILES	half-life [1]	paraxanthine concentration in the stock solution [2]	solubility of paraxanthine in the infusion solvents [3]
Cn1c(=O)c2c(ncn2C)n(C)c1=O [caffeine]	4.1 ± 0.8 h		
Cn1c(=O)[nH]c2ncn(C)c2c1=O [paraxanthine]		approximately 74 mM	increases with increasing pH
